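Step 1: Grow cells in 96-well plates. Step 2: Expose to compound for 48 hours at 5 concentrations. Step 3: Interpolate endpoints linearly; if unreached, use highest concentration. TGI: concentration producing complete growth inhibition.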 Where a SMILES comes first, the peptide text is derived from it. The star is where a group is joined. Boc = CC(C)(C)OC(=O)* Where only a bound is given, the exact number is not on record here.

Among the test systems are A549 NSCLC; DU-145 prostate; EKVX NSCLC; HL-60(TB) leukemia; HT29 colon; IGROV1 ovarian; NCI-H23 lung; NCI-H522 lung; OVCAR-5 ovarian; UACC-257 melanoma.
Holding throughout (test): DTP human tumour cell line panel, 48 h

On to `OC1CN=C2c3ccccc3C(O)(c3ccc(Cl)cc3)N2C1` (stereo unspecified), for which the TGI in the assay with A549 NSCLC, in the assay on DU-145 prostate, in the assay with EKVX NSCLC, with HL-60(TB) leukemia, in the assay on HT29 colon and with IGROV1 ovarian was more than 100 µM throughout. For the same molecule, the TGI with NCI-H23 lung, in the assay with NCI-H522 lung and with OVCAR-5 ovarian was more than 100 µM each time.

In the case of `O=c1[nH]cnc2c1ncn2[C@H]1CO[C@@H](CO)[C@@H]1O`, the total growth inhibition concentration (TGI) with DU-145 prostate, in the assay with EKVX NSCLC, with HT29 colon, in the assay on IGROV1 ovarian, with NCI-H23 lung and with NCI-H522 lung was more than 100 µM throughout. Further, the TGI in the assay with OVCAR-5 ovarian and in the assay with UACC-257 melanoma was more than 100 µM in each case.

Consider `O=C(CSc1nc2ccc(I)cc2c(=O)n1Cc1ccccc1)Nc1ccc(Br)cc1`, for which the TGI is more than 100 µM with A549 NSCLC; more than 100 µM in the assay on DU-145 prostate; 38.9 µM with EKVX NSCLC; more than 100 µM in the assay on HL-60(TB) leukemia; more than 100 µM in the assay with HT29 colon; more than 100 µM with IGROV1 ovarian. Also, the concentration for total growth inhibition (TGI) with NCI-H23 lung, with NCI-H522 lung and in the assay with OVCAR-5 ovarian was more than 100 µM in each case.

Regarding `Clc1ccc(OCc2nnc(CCCCCCCCc3nnc(COc4ccc(Cl)cc4Cl)o3)o2)c(Cl)c1`, the TGI in the assay on A549 NSCLC, with DU-145 prostate, with EKVX NSCLC, in the assay with HT29 colon, with IGROV1 ovarian and in the assay on NCI-H23 lung was more than 100 µM in each case. Moreover, the concentration for total growth inhibition (TGI) in the assay with NCI-H522 lung, in the assay on OVCAR-5 ovarian and in the assay on UACC-257 melanoma was more than 100 µM in each case.

On to `CC(NC(=O)C(NC(=O)OC(C)(C)C)C(C)C)C(=O)NCC(=O)O` (stereo not drawn) (Boc-Val-Ala-Gly-OH; configuration not given here), for which the total growth inhibition concentration (TGI) in the assay on A549 NSCLC, in the assay with DU-145 prostate, in the assay on EKVX NSCLC, with HT29 colon, with IGROV1 ovarian and in the assay on NCI-H23 lung was more than 100 µM in each case. Further, the concentration for total growth inhibition (TGI) in the assay with NCI-H522 lung, with OVCAR-5 ovarian and with UACC-257 melanoma was more than 100 µM throughout.

Regarding `O=C(c1cccs1)N(C(=O)N1CCC(c2ccccc2)CC1)c1ccccc1`, the TGI was more than 100 µM in the assay with DU-145 prostate; 52.9 µM with EKVX NSCLC; 91.2 µM in the assay on HL-60(TB) leukemia; more than 100 µM with HT29 colon; more than 100 µM with IGROV1 ovarian; more than 100 µM with NCI-H23 lung. Besides, the concentration for total growth inhibition (TGI) in the assay with OVCAR-5 ovarian and with UACC-257 melanoma was more than 100 µM each time.

On to `CCOC(=O)/C(=C\c1ccc(CO)o1)P(=O)(OCC)OCC`, for which the TGI in the assay on A549 NSCLC was more than 100 µM; in the assay on DU-145 prostate it was more than 100 µM; with EKVX NSCLC, more than 100 µM; in the assay on HT29 colon, more than 100 µM; in the assay on IGROV1 ovarian, more than 100 µM; with NCI-H23 lung it was 57.8 µM. For the same molecule, the concentration for total growth inhibition (TGI) with NCI-H522 lung was 15.4 µM; with OVCAR-5 ovarian, more than 100 µM; with UACC-257 melanoma, more than 100 µM.

With `COC1CCC(OC2CC(C3(C)CCC4(CC(O)C(C)C(C(C)/C=C(\C)C(=O)C(C)CC(C)C(=O)O)O4)O3)OC3(OC(C4OC(O)(CO)C(C)CC4C)CC3C)C2C)OC1C` (stereo unspecified), the TGI amounted to 1.97 µM in the assay with A549 NSCLC; 3.63 µM with DU-145 prostate; 9.64 µM in the assay with EKVX NSCLC; 2.19 µM with HT29 colon; 16.2 µM in the assay with IGROV1 ovarian; 1.13 µM in the assay on NCI-H23 lung. Moreover, the concentration for total growth inhibition (TGI) with NCI-H522 lung is 0.26 µM; in the assay with OVCAR-5 ovarian, 13.1 µM; in the assay with UACC-257 melanoma, 1.52 µM.

For `Cc1ccc2[nH]c(=O)c(-c3cnc(=O)[nH]n3)c(O)c2c1`, the TGI in the assay with A549 NSCLC, in the assay on DU-145 prostate, with EKVX NSCLC, in the assay with HL-60(TB) leukemia, with HT29 colon and in the assay on IGROV1 ovarian was more than 100 µM in each case. For the same molecule, the TGI in the assay with NCI-H23 lung, in the assay with OVCAR-5 ovarian and with UACC-257 melanoma was more than 100 µM each time.

In the case of `CC(Nc1cc(Cl)cc(Cl)c1)c1ccncc1` (stereo unspecified), the concentration for total growth inhibition (TGI) in the assay with A549 NSCLC is more than 100 µM; in the assay with EKVX NSCLC, 59.9 µM; in the assay with HT29 colon, 88.8 µM; in the assay with IGROV1 ovarian, 31.8 µM; in the assay on NCI-H23 lung it was 71.1 µM; in the assay on NCI-H522 lung, 32.6 µM. Further, the figures for the concentration for total growth inhibition (TGI) in the assay on OVCAR-5 ovarian and in the assay on UACC-257 melanoma were 32.4 µM and 58.6 µM, respectively.

`Brc1ccc2c(c1)C1=C(CO2)Cc2ccccc2O1`: the TGI in the assay with A549 NSCLC came out at 48 µM; in the assay with DU-145 prostate, 38.6 µM; in the assay on EKVX NSCLC it was 54.9 µM; with HT29 colon it was 62.8 µM; in the assay with IGROV1 ovarian, 32.7 µM; in the assay on NCI-H23 lung, 32.5 µM. Also, the values for the total growth inhibition concentration (TGI) with NCI-H522 lung, in the assay with OVCAR-5 ovarian and in the assay with UACC-257 melanoma were 39.8 µM, 34.8 µM and 32.6 µM, respectively.

As for `COc1ccc(-c2cc(-c3ccc(Nc4ccnc5cc(Cl)ccc45)cc3)nc(N)c2C#N)c2ccccc12`, the concentration for total growth inhibition (TGI) in the assay on A549 NSCLC, with DU-145 prostate, in the assay on EKVX NSCLC, in the assay with HT29 colon, with IGROV1 ovarian and in the assay on NCI-H23 lung was more than 100 µM each time. The TGI in the assay with NCI-H522 lung, with OVCAR-5 ovarian and in the assay with UACC-257 melanoma was more than 100 µM each time.

In the case of `CSc1n[n+](C)cc(N)c1N`, the TGI with A549 NSCLC, in the assay on EKVX NSCLC, in the assay with HL-60(TB) leukemia, with HT29 colon, with IGROV1 ovarian and in the assay on NCI-H23 lung was more than 100 µM throughout. Also, the total growth inhibition concentration (TGI) in the assay with NCI-H522 lung, in the assay with OVCAR-5 ovarian and in the assay with UACC-257 melanoma was more than 100 µM in each case.

Take `CC(NCCS(=O)(=O)O)C(=O)O` (stereo unspecified): the TGI in the assay with A549 NSCLC, with EKVX NSCLC, with HL-60(TB) leukemia, in the assay with HT29 colon, with IGROV1 ovarian and with NCI-H23 lung was more than 100 µM throughout. Besides, the total growth inhibition concentration (TGI) in the assay with NCI-H522 lung, in the assay with OVCAR-5 ovarian and in the assay with UACC-257 melanoma was more than 100 µM throughout.

As to `O=C(CCCC(=O)N1CC(CCl)c2ccc([N+](=O)[O-])cc21)N1CC(CCl)c2ccc([N+](=O)[O-])cc21` (stereo unspecified), the TGI in the assay on A549 NSCLC is 92.4 µM; in the assay on DU-145 prostate, more than 100 µM; in the assay on HL-60(TB) leukemia, more than 100 µM; in the assay with HT29 colon, more than 100 µM; with NCI-H23 lung, more than 100 µM; in the assay with NCI-H522 lung, more than 100 µM. For the same molecule, the total growth inhibition concentration (TGI) in the assay with OVCAR-5 ovarian and with UACC-257 melanoma was more than 100 µM throughout.

The values are drawn from PubChem BioAssay (NCI).
